For one experiment, the system named is K562 cells. Briefly: Cell growth inhibition of K562 cells (CellTiter-Glo). It is filed as cell-based. Conditions: Homo sapiens, 120 h, 5 days. The procedure: Example 24: Cell Growth Inhibition of K562 Cells
K562 cells were obtained from American Type Culture Collection (ATCC). For cell growth assay, K562 cells were seeded in 96-well plates at 1000 cells/well in 90 μl of RPM11640 growth medium containing 10% FBS and 1% Penicillin Streptomycin, and then incubated at 37° C. for 1 hour. The test compound was administered to the cells by using 1000× compound stock solution prepared in DMSO at various concentrations. 1000× compound stock solution was first diluted in culturing medium to 10×, then 10 uL compound medium was added to each well in the cell plates. After administration of the compound, the cells were then incubated at 37° C. for 5 days. Upon completion, the plates were equilibrated at room temperature for approximately 10 minutes. 100 ul of CellTiter-Glo® Reagent (Promega) was added to each well. The plates were then incubated at room temperature for 10 minutes and luminescence was recorded by EnSpire plate reader (PerkinElmer).

The target in the next experiment is SOS1/KRAS-G12D (Homo sapiens (Human), UniProt Q07889). Briefly: SOS1/KRAS-G12D binding inhibition assay (AlphaScreen). Conditions: GST-SOS1 and 6*His KRAS-G12D, read-out: KrasG12D/SOS1 binding IC50. The method, then:
Example 22: SOS1/KRAS-G12D Binding Inhibition Assay
SOS1 binding affinity of candidate compounds was measured by monitoring the interaction of SOS1 with KRAS-G12D in the presence of the test compound. Briefly, 5 nM GST tagged SOS1 proteins (final concentration) were pre-incubated with 50 nM 6*His tagged KRAS-G12D proteins (final concentration) in an assay buffer containing 10 mM HEPES, pH 7.4, 150 mM NaCl, 1 mM DTT, 5 mM MgCl2, 0.1% Tween-20, and 0.05% BSA for 30 minutes. The test compounds in 2% DMSO (final concentration) at various concentrations were then added to the reaction mixture and incubated for another 30 minutes at 4° C. 5 ug/ml GSH AlphaScreen donor beads (PerkinElmer, 6765300) and 5 ug/ml nickel chelate (Ni-NTA) AlphaScreen acceptor beads (PerkinElmer, 6760619C) (final concentrations) were then added to the mixture. After an incubation of 2 hours at 4° C., the fluorescent signals were obtained on the EnVision® 2105 Multilabel Plate Reader (PerkinElmer).
Raw AlphaScreen data were converted to a percentage of inhibition (relative to DMSO) using the following equations: • a) For a given test compound concentration X:
Signal (X)=Signal (SOS1 & KRAS-G12D & compound)-Signal (buffer & KRAS-G12D & compound)
Percentage of inhibition at concentration X=[1−Signal (X)/Signal (DMSO)]*100% b)
The IC50 values were determined by nonlinear regression of plots of [inhibitor] vs. percentage of inhibition with variable slope, analyzed using GraphPad Prism 9.

The test system of experiment [1] is Phospho-ERK1/2 in DLD1 cells. As to the kind of experiment: Phospho-ERK1/2 expression inhibition in DLD1 cells. The experiment is classed as cell-based. Conditions: Homo sapiens, DLD-1, 4 hours, read-out: DLD1 pERK IC50. The procedure:
Example 23: Phospho-ERK1/2 Expression Inhibition in DLD1 Cells
DLD1 cells were obtained from American Type Culture Collection (ATCC). DLD1 cells were plated in 96-well plates (VWR #10062-900, or Corning #3904) in 90 uL culture medium at a density of 15,000 cells/well in the RPM11640 growth medium containing 10% FBS and 1% Penicillin Streptomycin, and then incubated at 37° C. overnight. The following day, the test compound was administered to the cells by using 1000×x compound stock solution prepared in DMSO at various concentrations. 1000× compound stock solution was first diluted in culturing medium to 10×, then 10 uL compound medium was added to each well in the cell plates. After administration of the compound, the cells were then incubated at 37° C. for 4 hours. Upon completion, the cells were washed with PBS briefly. 150 uL/well of 4% formaldehyde was added and the plates were incubated at room temperature for 20 mins. The cells were washed with PBS briefly, and permeabilized with 150 uL/well of ice cold 100% methanol for 10 mins. The cells were washed with PBS briefly and blocked with 100 uL/well LI-COR blocking buffer for 1 hr at room temperature with gentle shaking. The cells were incubated overnight at 4° C. with 50 uL primary antibody rabbit anti-Phospho-ERK1/2 (1: 500, Cell Signaling, #4370) diluted in Intercept Blocking Buffer (LI-COR, #927-60001) containing 0.1% Tween 20. The next day, the cells were washed with 200 uL PBS containing 0.1% Tween 20, 5×5 mins at room temperature with gentle shaking, and incubated with 50 uL secondary antibody, IRDye® 800CW Goat anti-Rabbit IgG (LI-COR, #926-32211), 1:1000, in LI-COR blocking buffer with 0.2% Tween 20 for 1 hr at room temperature with gentle shaking. The cells were washed with 200 uL PBS containing 0.1% Tween 20, 5×5 mins at room temperature with gentle shaking. The cells were washed with PBS for 5 mins. 100 uL fresh PBS was added to each well and the plates were imaged on a LI-COR Odyssey CLX plate reader.

Our source for the GI50 and IC50 values is US20240208909A1, “SUBSTITUTED QUINOLINE DERIVATIVES HAVING SOS1 INHIBITION ACTIVITIES AND USES THEREOF” (Accutar Biotechnology Inc., priority 2022, published 2024).

Molecules are shown by their SMILES.

Chain of SOS1/KRAS-G12D (Q07889 564-1049 limits assumed): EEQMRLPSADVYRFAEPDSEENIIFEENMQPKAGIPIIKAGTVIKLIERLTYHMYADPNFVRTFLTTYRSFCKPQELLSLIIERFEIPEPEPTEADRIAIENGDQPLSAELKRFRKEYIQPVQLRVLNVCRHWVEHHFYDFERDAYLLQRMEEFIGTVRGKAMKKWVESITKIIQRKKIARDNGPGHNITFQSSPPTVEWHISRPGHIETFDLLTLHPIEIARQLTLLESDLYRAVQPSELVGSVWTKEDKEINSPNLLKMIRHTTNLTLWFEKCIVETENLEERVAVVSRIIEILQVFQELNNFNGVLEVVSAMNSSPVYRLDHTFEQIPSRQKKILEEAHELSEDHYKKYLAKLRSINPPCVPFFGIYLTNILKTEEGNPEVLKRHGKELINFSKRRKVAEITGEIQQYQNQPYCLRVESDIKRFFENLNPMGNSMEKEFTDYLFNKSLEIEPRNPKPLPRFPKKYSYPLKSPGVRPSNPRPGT

As usually defined, the GI50 is the concentration at which growth is held to half of that of the control. The low end stands for greater sensitivity of the cells, the high end for lower sensitivity of the cells. `Cc1c([C@@H](C)Nc2ccnc3ccc(N4CC5CCC(C4)N5)cc23)cccc1C(F)(F)F` [Compound 59, 6-(3,8-diazabicyclo[3.2.1]octan-3-yl)-N-((R)-1-(2-methyl-3-(trifluoromethyl)phenyl)ethyl)quinolin-4-amine] had a GI50 in the experiment on K562 cells of 100 to 500 nM. Besides, the IC50 is 10 to 100 nM on SOS1/KRAS-G12D and greater than 500 nM in experiment [1].
For `COC1(c2ccc3nccc(N[C@H](C)c4cccc(C(F)F)c4F)c3c2)CCN(C(C)=O)CC1` [Compound 72, (R)-1-(4-(4-((1-(3-(difluoromethyl)-2-fluorophenyl)ethyl)amino)quinolin-6-yl)-4-methoxypiperidin-1-yl)ethan-1-one] the same measures were no more than 100 nM, no more than 10 nM and no more than 150 nM.
On the same counts, the results for `COC(=O)N1CCC(F)(c2cc3c(N[C@H](C)c4cccc(C(F)(F)F)c4C)ccnc3cc2OC)CC1` [Compound 74, Methyl (R)-4-fluoro-4-(7-methoxy-4-((1-(2-methyl-3-(trifluoromethyl)phenyl)ethyl)amino)quinolin-6-yl)piperidine-1-carboxylate] are 100 to 500 nM, 10 to 100 nM and 150 to 500 nM.
For `Cc1c([C@@H](C)Nc2ccnc3ccc(N4CCN(CC(F)(F)F)CC4)cc23)cccc1C(F)(F)F` [Compound 52, (R)-N-(1-(2-methyl-3-(trifluoromethyl)phenyl)ethyl)-6-(4-(2,2,2-trifluoroethyl)piperazin-1-yl)quinolin-4-amine] the same measures were greater than 500 nM, greater than 100 nM and greater than 500 nM.
Consider `C[C@@H](Nc1ccnc2c(F)cc(N3CC[C@@H](N)C3)cc12)c1cccc(C(F)F)c1F` [Compound 30, 6-((R)-3-aminopyrrolidin-1-yl)-N-((R)-1-(3-(difluoromethyl)-2-fluorophenyl)ethyl)-8-fluoroquinolin-4-amine], for which the GI50 in the experiment on K562 cells fell in the range of 100 to 500 nM. The IC50 is 10 to 100 nM on SOS1/KRAS-G12D and greater than 500 nM in experiment [1].
For `CO[C@]1(c2ccc3nccc(N[C@H](C)c4cccc(C(F)F)c4F)c3c2)CCN(C(=O)N(C)C)C1` [Compound 98, (S)-3-(4-(((R)-1-(3-(difluoromethyl)-2-fluorophenyl)ethyl)amino)quinolin-6-yl)-3-methoxy-N,N-dimethylpyrrolidine-1-carboxamide] the same measures were 100 to 500 nM, no more than 10 nM and greater than 500 nM.
On the same counts, the results for `Cc1c([C@@H](C)Nc2ccnc3ccc(N4CC5(CCN(C)C5=O)C4)cc23)cccc1C(F)(F)F` [Compound 21, (R)-6-methyl-2-(4-((1-(2-methyl-3-(trifluoromethyl)phenyl)ethyl)amino)quinolin-6-yl)-2,6-diazaspiro[3.4]octan-5-one] are greater than 500 nM, greater than 100 nM and greater than 500 nM.
`CO[C@@]1(c2ccc3nccc(N[C@H](C)c4cccc(C(F)F)c4F)c3c2)CCN(C(=O)N(C)C)C1` [Compound 99, (R)-3-(4-(((R)-1-(3-(difluoromethyl)-2-fluorophenyl)ethyl)amino)quinolin-6-yl)-3-methoxy-N,N-dimethylpyrrolidine-1-carboxamide] came in with a 50% growth inhibitory concentration (GI50) in the experiment with K562 cells of no more than 100 nM. Besides, the IC50 was no more than 10 nM on SOS1/KRAS-G12D and 150 to 500 nM in experiment [1].
`CC(=O)N1CCN(c2ccc3nccc(N[C@H](C)c4cccc(C(F)(F)F)c4C)c3c2)C[C@@H]1C` [Compound 33, 1-((S)-2-methyl-4-(4-(((R)-1-(2-methyl-3-(trifluoromethyl)phenyl)ethyl)amino)quinolin-6-yl)piperazin-1-yl)ethan-1-one] came in with a GI50 in the experiment with K562 cells of 100 to 500 nM. Moreover, the results for the IC50 (at SOS1/KRAS-G12D; in experiment [1]) were greater than 100 nM and greater than 500 nM, respectively.
`Cc1c([C@@H](C)Nc2ccnc3ccc(N4CCNC[C@@H]4C)cc23)cccc1C(F)(F)F` [Compound 60, N-((R)-1-(2-methyl-3-(trifluoromethyl)phenyl)ethyl)-6-((S)-2-methylpiperazin-1-yl)quinolin-4-amine] had a GI50 with K562 cells of 100 to 500 nM. Besides, the IC50 is 10 to 100 nM at SOS1/KRAS-G12D and greater than 500 nM in experiment [1].
For the molecule `CC(=O)N1CCC(O)(c2ccc3nccc(N[C@H](C)c4cccc(C(F)F)c4F)c3c2)C1` (stereo partly drawn) [Compound 83, 1-(3-(4-(((R)-1-(3-(difluoromethyl)-2-fluorophenyl)ethyl)amino)quinolin-6-yl)-3-hydroxypyrrolidin-1-yl)ethan-1-one], in the experiment with K562 cells, the GI50 was no more than 100 nM. For the same molecule, the values for the IC50 (on SOS1/KRAS-G12D; in experiment [1]) were no more than 10 nM and 150 to 500 nM, respectively.
Consider `Cc1c([C@@H](C)Nc2ccnc3ccc(N4CCN(C(=O)C5CCCO5)CC4)cc23)cccc1C(F)(F)F` (stereo partly drawn) [Compound 53, (4-(4-(((R)-1-(2-methyl-3-(trifluoromethyl)phenyl)ethyl)amino)quinolin-6-yl)piperazin-1-yl)(tetrahydrofuran-2-yl)methanone], for which the GI50 in the experiment with K562 cells lay within 100 to 500 nM. Further, the IC50 at SOS1/KRAS-G12D was 10 to 100 nM; in experiment [1] it was greater than 500 nM.
In the experiment on K562 cells, `C[C@@H](Nc1ccnc2ccc(N3CC[C@@H](N(C)C)C3)cc12)c1cccc(C(F)F)c1F` [Compound 31, N-((R)-1-(3-(difluoromethyl)-2-fluorophenyl)ethyl)-6-((R)-3-(dimethylamino)pyrrolidin-1-yl)quinolin-4-amine] came in with a GI50 of no more than 100 nM. In addition, the figures for the IC50 (on SOS1/KRAS-G12D; in experiment [1]) were no more than 10 nM and greater than 500 nM, respectively.
On the same counts, the results for `Cc1c([C@@H](C)Nc2ccnc3ccc(N4CCNC(C)(C)C4)cc23)cccc1C(F)(F)F` [Compound 35] are 100 to 500 nM, 10 to 100 nM and greater than 500 nM.
For `CC(=O)N1C[C@@H](C)N(c2ccc3nccc(N[C@H](C)c4cccc(C(F)(F)F)c4C)c3c2)C[C@@H]1C` [Compound 57, 1-((2S,5R)-2,5-dimethyl-4-(4-(((R)-1-(2-methyl-3-(trifluoromethyl)phenyl)ethyl)amino)quinolin-6-yl)piperazin-1-yl)ethan-1-one] the same measures were 100 to 500 nM, greater than 100 nM and greater than 500 nM.
For the molecule `CC(=O)N1CCC(F)(c2ccc3nccc(N[C@H](C)c4cccc(C(F)F)c4F)c3c2)CC1` [Compound 41, (R)-1-(4-(4-((1-(3-(difluoromethyl)-2-fluorophenyl)ethyl)amino)quinolin-6-yl)-4-fluoropiperidin-1-yl)ethan-1-one], in the experiment with K562 cells, the GI50 was no more than 100 nM. The values for the IC50 (at SOS1/KRAS-G12D; in experiment [1]) were no more than 10 nM and 150 to 500 nM, respectively.
For `CO[C@]1(c2ccc3nccc(N[C@H](C)c4cccc(C(F)F)c4F)c3c2)CCN(C(=O)C(C)C)C1` [Compound 92, 1-((S)-3-(4-(((R)-1-(3-(difluoromethyl)-2-fluorophenyl)ethyl)amino)quinolin-6-yl)-3-methoxypyrrolidin-1-yl)-2-methylpropan-1-one] the same measures were no more than 100 nM, no more than 10 nM and no more than 150 nM.
